Results as given in patent publication US20200157195A1, “14-3-3 Antagonists for the Prevention and Treatment of Arthritis” (THE UNIVERSITY OF BRITISH COLUMBIA, priority 2007, published 2020).
The star is where a group is joined. Biotin = O=C1N[C@H]2[C@H](CS[C@H]2CCCCC(=O)*)N1

Experiments:
[1] = tested on: MMP-1 expression in dermal fibroblasts induced by extracellular 14-3-3 protein; test: MMP-1 expression in dermal fibroblasts treated with KLCCM after R-18 pull-down of 14-3-3 proteins; format: cell-based
Description: The KLCCM used in these experiments was taken from day 28 of cell transdifferentiation due to their high capacity of inducing MMP-1 expression in dermal fibroblasts (data not shown). […] As negative control, dermal fibroblasts treated with medium that was not conditioned (DMEM (49%), KSFM (49%) plus 2% FBS) were used (“Pull-down”−).

[2] = tested on: association of 14-3-3 proteins with Raf-1; settings: Wang et al. 1999; cited from earlier work

## Biotin-PHCVPRDLSWLDLEANMCLP-OH (cysteine pairing not given here) [biotinylated R-18]
[1]; pre-treatment of KLCCM with biotinylated R-18 and avidin sepharose (pull-down), dermal fibroblasts, MMP-1/β-actin densitometry
  reduction of MMP-1 expression: 68.8%

## R-18: small peptide 14-3-3 antagonist (Wang et al. 1999) capable of blocking the association of 14-3-3 proteins with Raf-1 (Biotin-PHCVPRDLSWLDLEANMCLP-OH; not fully specified; cysteine pairing not given here)
[1]; FIG. 5 legend
  inhibition of induction of MMP-1 expression by extracellular 14-3-3 protein (in words): inhibits induction of MMP-1 expression
[2]
  blocking the association of 14-3-3 proteins with Raf-1: capable of blocking the association of 14-3-3 proteins with Raf-1
